This passage reports TGI and GI50 results from PubChem BioAssay (NCI).

Several values for one entry are separate records, joined by “and”; a condition that tells them apart may be missing. Equal entries are not always repeated.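 Test compounds were applied to cells in 96-well plates for 48 hours at 5 doses. GI50: concentration for 50% inhibition of growth. Definition used: TGI = concentration required for complete inhibition of growth.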

Holding throughout (test): DTP human tumour cell line panel, 48 h
Assay [1] relates to A498 renal.
Assay [2] has as its system BT-549 breast.
Assay [3] has as its system CCRF-CEM leukemia.
The test system of assay [4] is HOP-62 NSCLC.
The test system of assay [5] is LOX IMVI melanoma.
Assay [6] deals with MCF7 breast.
The test system of assay [7] is MDA-N.
Assay [8] has as its system OVCAR-8 ovarian.
Assay [9] concerns PC-3 prostate.
Assay [10] concerns RPMI-8226 leukemia.
Assay [11] deals with RXF 393 renal.
For assay [12], the system named is SR leukemia.

Usually TGI stands for the concentration at which net growth stops. High values mean lower sensitivity of the cells, low ones greater sensitivity of the cells. Take `CC(C)N(CC(=O)O)CC(=O)O`: the TGI in assay [1], in assay [2], in assay [3], in assay [4], in assay [5] and in [6] was greater than 100 µM in each case. Also, the TGI in [7], in assay [8], in assay [9], in assay [10], in [11] and in [12] was greater than 100 µM in each case.
In the case of `CCCCCCCCCCCCCCCCCCN(C)CC(COC)OP(=O)([O-])OCC[N+](C)(C)C` (stereo not given), the TGI turned out to be 14 µM in [1]; 6.75 µM in assay [2]; 5.16 µM in assay [3]; 5.17 µM in [4]; 20.2 µM in assay [5]; 14.8 µM in assay [6]. Moreover, the TGI in assay [7] came to 15.3 µM; in assay [8], 14.2 µM; in assay [9], 1.47 µM; in [10], 3.14 µM; in assay [11], 2.29 µM; in assay [12], 8.55 µM.
Take `CC1CC(C)(O)C2C3(C)CCCC2(COC3=O)C12CCC1(CCOC1=O)O2` (stereo not given): the TGI in [1] was 248 µM; in [3], greater than 250 µM; in assay [4], greater than 250 µM; in assay [5], greater than 250 µM; in assay [6] it was greater than 250 µM; in assay [8], greater than 250 µM. The TGI in assay [10] and in assay [11] was greater than 250 µM throughout.
For `O=C1c2cc3c(cc2[C@@H]2C(O)[C@H]4O[C@H]4C4CCN1C42)OCO3` (stereo not given in full), the TGI in [3], in assay [4], in assay [5], in assay [8], in assay [10] and in assay [12] was greater than 37.5 µM throughout.
With `Cc1csc2nc(-c3cc([N+](=O)[O-])c(Cl)cc3Cl)c(/C=N/N=C(N)N)n12`, the TGI is 35 µM in [1]; 29.5 µM in assay [2]; greater than 100 µM in assay [3]; 35 µM in [4]; 33.1 µM in assay [5]; 37.5 µM in assay [6]. The TGI stood at 36.1 µM in [8]; 38.9 µM in assay [9]; 56.5 µM in assay [10]; 35 µM in assay [11]; 4.84 µM in assay [12].
For the compound `Nc1[nH]c(=O)nc2c1cnn2COCCO`, the TGI in assay [1] is greater than 100 µM; in assay [3], greater than 100 µM; in [5] it was greater than 100 µM; in assay [8], greater than 100 µM; in [10] it was greater than 100 µM; in assay [11], 93.7 µM. Besides, in assay [12], the TGI is greater than 100 µM.
In the case of `CN(C)CCC(=O)[C@@]1(O)CC[C@H]2[C@@H]3CC=C4C[C@@H](O)CC[C@]4(C)[C@H]3CC[C@@]21C`, the TGI in assay [1] was 29.7 µM; in assay [2], 32.8 µM; in [3], greater than 55.7 µM; in assay [4] it was 30.6 µM; in [5] it was 28.7 µM; in [6], 16.8 µM. Further, the TGI in [7] came to 34.5 µM; in assay [8], 40 µM; in assay [9], 26.2 µM; in assay [10], 7.01 µM; in assay [11] it was 23.1 µM; in [12], 39.4 µM.
As for `c1ccc(-c2cc3nc4ccccc4nc3cc(-c3ccccc3)[nH][nH]2)cc1`, the TGI was 55.7 µM in [1]; greater than 100 µM in [2]; greater than 100 µM in assay [3]; 66.9 µM in [4]; greater than 100 µM in [5]; greater than 100 µM in [6]. Further, the TGI in assay [7], in [8], in assay [9], in assay [10], in assay [11] and in assay [12] was greater than 100 µM in each case.
In the case of `CC(C)CC(N)C(=O)NC(CNC(CCC(N)=O)C(=O)NC(CC(C)C)C(=O)NC(CC(C)C)C(=O)O)Cc1ccc2ccccc2c1` (stereo not given), the TGI in assay [1], in assay [2], in [3], in assay [4], in [5] and in [6] was greater than 10 µM in each case. Besides, the TGI in assay [7], in assay [8], in assay [9], in assay [10], in assay [11] and in assay [12] was greater than 10 µM each time.
For the compound `CCn1c2ccccc2c2ccc(C3C4C(=O)N(c5cccc6ccccc56)C(=O)C4ON3C(C(N)=O)c3ccccc3)cc21` (stereo not given), the TGI in [1] is 6.96 µM; in assay [2] it was greater than 25 µM; in assay [4], greater than 25 µM; in assay [5], greater than 25 µM; in [6], greater than 25 µM; in assay [7], greater than 25 µM. The TGI in [8], in assay [9], in assay [11] and in [12] was greater than 25 µM each time.
A word on the GI50: it is the concentration at which growth is held to half of that of the control. As to `C[C@@]12CC[C@@H](O)C[C@@H]1CC[C@H]1[C@H]2CC[C@@]2(C)[C@H](c3ccc(=O)oc3)CC[C@@]12O`, the GI50 in assay [1], in [2], in [4], in assay [5], in [6] and in [9] was less than 0.01 µM in each case. Moreover, the GI50 in assay [10] and in [11] was less than 0.01 µM throughout. Moreover, the TGI in assay [1] was determined as 0.0445 µM; in assay [2], 0.0104 µM; in assay [4], 0.0156 µM; in [5] it was 0.0169 µM; in [6], 0.0932 µM; in assay [9] it was 0.0209 µM.
`Cc1ccc(C(=O)NC2C(=O)NC(C(C)C)C(=O)N3CCCC3C(=O)N(C)CC(=O)N(C)C(C(C)C)C(=O)OC2C)c2c1Oc1c(c(C(=O)NC3C(=O)NC(C(C)C)C(=O)N4CCCC4C(=O)N(C)CC(=O)N(C)C(C(C)C)C(=O)OC3C)c3nc(-c4ccccc4)c(=O)oc3c1C)N2` (stereo not given): the TGI in assay [1] came to 0.00273 µM; in [2] it was 0.0224 µM; in [3] it was 0.697 µM; in assay [4], 0.00223 µM; in assay [6], 0.0116 µM; in assay [7], 0.0236 µM. Also, the TGI in [8] was 0.0273 µM; in [9], 0.544 µM and 0.129 µM; in [10] it was 0.0442 µM; in assay [11], 0.00911 µM.
For the compound `CCCCCCC(=O)OC[n+]1ccc(-c2c(COC(=O)NC(C)C)c(COC(=O)NC(C)C)c3n2CCC3)cc1`, the TGI in [1] is greater than 94.2 µM; in [2], greater than 100 µM; in [3], greater than 88 µM; in [4], greater than 100 µM; in assay [5] it was greater than 100 µM; in assay [6] it was greater than 100 µM. In addition, the TGI in assay [8] was greater than 100 µM; in assay [9], greater than 100 µM; in assay [10] it was 98.9 µM; in assay [11] it was greater than 100 µM; in [12], 50.9 µM.
On to `[O-]c1c2c(nn1-c1ccc(F)cc1)c1ccccc1c[n+]2Cc1ccccc1`, for which the TGI is 85.3 µM in assay [1]; 33.7 µM in assay [3]; 32.1 µM in [4]; 61.9 µM in [8]; 47.1 µM in assay [10]; 33.7 µM in assay [11]. Also, the TGI in [12] was 41.9 µM.
For the compound `C/C=C\C1OC1(C)c1cc(=O)c2c(C)cc3c(c2o1)C(=O)c1c(O)c(C2CC(C)(N(C)C)C(OC(C)=O)C(C)O2)cc(C2CC(N(C)C)C(O)C(C)O2)c1C3=O` (stereo not given), the TGI in assay [1] was determined as 0.0215 µM; in assay [2], 0.0221 µM; in assay [3] it was 0.379 µM; in assay [4], 0.0121 µM; in assay [5], 0.00485 µM; in assay [6] it was 0.0401 µM. Besides, the TGI turned out to be 0.00857 µM in [7]; 0.0177 µM in assay [8]; 0.0131 µM in assay [9]; 0.0574 µM in assay [10]; 0.00746 µM in assay [11].
As to `Nc1c(S(=O)(=O)O)cc(S(=O)(=O)O)c2ccc(N=Nc3ccccc3)c(O)c12`, the TGI in assay [1], in [2], in assay [3], in [4], in [5] and in [6] was greater than 100 µM throughout. The TGI in [7], in assay [8], in assay [9], in assay [10], in assay [11] and in assay [12] was greater than 100 µM in each case.
Regarding `CCOC(=O)c1sc2nc(SC)nc3c2c1NC(=O)CN3c1ccc(F)cc1`, the TGI is 98.7 µM in [1]; 43.3 µM in [2]; 78.4 µM in assay [3]; 33.7 µM in assay [4]; greater than 100 µM in [5]; greater than 100 µM in assay [6]. Also, the TGI in assay [7] was greater than 100 µM; in assay [8], 69.1 µM; in [9] it was 37 µM; in [10], greater than 100 µM; in assay [11], 41.8 µM; in assay [12], greater than 100 µM.
Turning to `CCOC(=O)C(C(=O)OCC)c1cc(-c2cc3ccccc3o2)oc(=O)c1C#N`, the TGI in assay [1] is 70.1 µM; in assay [3], greater than 100 µM; in [5] it was 31.8 µM; in assay [8], 49.1 µM; in assay [10], greater than 100 µM; in assay [11], 43.5 µM. This compound came in with a TGI in assay [12] of 66.3 µM.
Turning to `COc1cc2cc(C(=O)N3CC(CCl)c4ccc(NO)cc43)[nH]c2c(OC)c1OC` (stereo not given), the TGI in [1] is greater than 100 µM; in [2] it was 1.05 µM; in assay [3], 1.16 µM; in [4] it was 0.749 µM; in assay [5] it was 2.56 µM; in [6] it was greater than 32.8 µM. The TGI in [7] is 0.727 µM; in assay [8], 11.5 µM; in assay [9], 2.05 µM; in assay [10] it was 0.442 µM; in [11], 0.343 µM; in assay [12], greater than 100 µM.
With `O=P1(Oc2ccc(Cl)cc2Cl)Oc2cc3ccccc3cc2O1`, the TGI in [1] was greater than 90.5 µM; in assay [3] it was greater than 100 µM; in assay [4], greater than 100 µM; in assay [5] it was greater than 100 µM; in assay [6], greater than 74.4 µM; in assay [8] it was greater than 100 µM. Besides, the TGI is greater than 60.1 µM in assay [10] and greater than 100 µM in assay [11].
As for `CC(=O)NC1C(OCc2ccccc2)OC(CO)C(O)C1OCC(=O)NC(C(=O)NC(CCC(=O)NCCCCCC(=O)Nc1ccc2c(c1)CN1C(=O)c3ccccc3C1=N2)C(N)=O)C(C)C` (stereo not given), the TGI was 73.7 µM in [1]; 48.1 µM in [2]; greater than 100 µM in assay [3]; 40.8 µM in assay [4]; greater than 100 µM in [5]; 56.7 µM in assay [6]. The TGI was greater than 100 µM in assay [7]; 79.5 µM in assay [8]; 70.8 µM in assay [9]; greater than 100 µM in assay [10]; 45 µM in assay [11]; greater than 100 µM in [12].
On to `O=C(O)C1=C(CO)Oc2cc3c(cc2C1c1ccc2c(c1)OCO2)OCO3` (stereo not given), for which the TGI in assay [3], in assay [4], in assay [5], in [8], in [10] and in assay [11] was greater than 100 µM each time.
Consider `COc1ccc2c(O)c1-c1c(OC)ccc(c1O)SSc1ccc(OC)c(c1O)-c1c(OC)ccc(c1O)SS2`, for which the TGI in assay [1], in [3], in assay [4], in assay [5], in [6] and in [7] was greater than 100 µM each time. In addition, the TGI in assay [8] was greater than 100 µM; in assay [9], 26.4 µM; in assay [10], 7.07 µM; in [11] it was 60 µM; in assay [12], 21.5 µM.
